Data from patent US20120238549A1, “Nuclear Hormone Receptor Modulators” (ABBOTT LABORATORIES, priority 2011, published 2012).

biological target: T1, Glucocorticoid Receptor (GR) (Homo sapiens, UniProt P04150); test: GR Florescence Polarization Assay (PolarScreen Glucocorticoid Receptor Competitor Assay, Red); conditions: Fluorescense polarization binding ranges; competition with fluorescent glucocorticoid, incubated overnight at 4° C.
T1 construct: purchased Invitrogen P2893
T1 sequence (P04150 1-777): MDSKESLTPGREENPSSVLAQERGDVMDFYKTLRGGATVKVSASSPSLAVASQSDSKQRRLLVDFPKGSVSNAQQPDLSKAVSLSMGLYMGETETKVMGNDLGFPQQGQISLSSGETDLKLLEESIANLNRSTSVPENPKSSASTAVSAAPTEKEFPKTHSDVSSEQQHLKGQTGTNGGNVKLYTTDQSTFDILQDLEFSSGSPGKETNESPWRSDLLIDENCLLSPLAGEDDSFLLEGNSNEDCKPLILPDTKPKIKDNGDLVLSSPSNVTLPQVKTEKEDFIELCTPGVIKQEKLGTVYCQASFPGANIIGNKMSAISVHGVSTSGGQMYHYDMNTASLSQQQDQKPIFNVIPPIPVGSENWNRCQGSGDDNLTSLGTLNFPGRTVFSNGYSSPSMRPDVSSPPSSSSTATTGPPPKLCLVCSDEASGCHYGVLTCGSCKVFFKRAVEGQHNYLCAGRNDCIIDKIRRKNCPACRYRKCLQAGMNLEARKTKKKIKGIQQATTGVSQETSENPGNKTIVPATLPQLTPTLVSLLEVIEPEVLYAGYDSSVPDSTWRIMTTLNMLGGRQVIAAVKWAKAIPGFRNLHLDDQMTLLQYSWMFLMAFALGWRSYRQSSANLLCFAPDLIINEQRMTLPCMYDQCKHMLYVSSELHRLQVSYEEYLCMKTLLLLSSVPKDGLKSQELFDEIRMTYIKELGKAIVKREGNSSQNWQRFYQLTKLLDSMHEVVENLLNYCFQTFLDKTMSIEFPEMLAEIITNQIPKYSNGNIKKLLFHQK
Outline: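 Competitive fluorescence polarization using fluorescent glucocorticoid tracer and human GR in kit buffer. Compounds serially diluted 1:4 in DMSO, incubated with tracer and GR overnight at 4 °C before polarization read.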

IC50	Compound
< 100 nM	CC[C@@]1(O)CC[C@@]2(Cc3ccccc3)c3ccc(C(=O)Nc4ccccc4N)cc3CCC[C@H]2C1 [Example 126, (7aS,9R,11aS)-11a-Benzyl-9-ethyl-9-hydroxy-6,7,7a,8,9,10,11,11a-octahydro-5H-dibenzo[a,c]cycloheptene-3-carboxylic acid (2-amino-phenyl)-amide]
100 to 1000 nM	CC[C@@]1(O)CC[C@@]2(Cc3ccccc3)c3ccc(-c4nc5ccccc5[nH]4)cc3CCC[C@H]2C1 [Example 127, (3R,4aS,11bS)-9-(1H-benzoimidazol-2-yl)-11b-benzyl-3-ethyl-2,3,4,4a,5,6,7,11b-octahydro-1H-dibenzo[a,c]cyclohepten-3-ol]
< 100 nM	CC[C@@]12CC[C@](O)(CCC(F)(F)F)C[C@@H]1CCCc1cc(C(=O)Nc3cccnc3C)ccc12.CC[C@]12CC[C@@](O)(CCC(F)(F)F)C[C@H]1CCCc1cc(C(=O)Nc3cccnc3C)ccc12 [Example 133, (7aS,9S,11aR)-11a-Ethyl-9-hydroxy-9-(3,3,3-trifluoro-propyl)-6,7,7a,8,9,10,11,11a-octahydro-5H-dibenzo[a,c]cycloheptene-3-carboxylic acid (2-methyl-pyridin-3-yl)-amide; compound with (7aR,9R,11aS)-11a-ethyl-9-hydroxy-9-(3,3,3-trifluoro-propyl)-6,7,7a,8,9,10,11,11a-octahydro-5H-dibenzo[a,c]cycloheptene-3-carboxylic acid (2-methyl-pyridin-3-yl)-amide]
100 to 1000 nM	CC[C@@]1(O)CC[C@@]2(CC)c3ccc(C(=O)Nc4cccnc4C)cc3COC[C@H]2C1 [Example 140]
> 10000 nM	CC[C@]1(O)CC[C@]2(CC)c3ccc(C(=O)Nc4cccnc4C)cc3COC[C@@H]2C1 [Example 141]
< 100 nM	CC[C@@]1(O)CC[C@@]2(Cc3ccccc3)c3ccc(C(=O)Nc4cccc(N)c4)cc3CCC[C@H]2C1 [Example 142, (7aS,9R,11aS)-11a-Benzyl-9-ethyl-9-hydroxy-6,7,7a,8,9,10,11,11a-octahydro-5H-dibenzo[a,c]cycloheptene-3-carboxylic acid (3-amino-phenyl)-amide]
< 100 nM	CC[C@@]1(O)CC[C@@]2(Cc3ccccc3)c3ccc(C(=O)Nc4ccc(N)cc4)cc3CCC[C@H]2C1 [Example 143, (7aS,9R,11aS)-11a-Benzyl-9-ethyl-9-hydroxy-6,7,7a,8,9,10,11,11a-octahydro-5H-dibenzo[a,c]cycloheptene-3-carboxylic acid (4-amino-phenyl)-amide]
< 100 nM	CCC[C@@]1(O)CC[C@@]2(CC)c3ccc(C(=O)Nc4ccccc4Cl)cc3CCC[C@H]2C1 [Example 151, (7aS,9R,11aR)-11a-Ethyl-9-hydroxy-9-propyl-6,7,7a,8,9,10,11,11a-octahydro-5H-dibenzo[a,c]cycloheptene-3-carboxylic acid (2-chloro-phenyl)-amide]
< 100 nM	(3R,4aR,11bR)-11b-benzyl-3-methyl-2,3,4,4a,5,6,7,11b-octahydro-1H-dibenzo[a,c]cycloheptene-3,9-diol; compound with (3S,4aS,11bS)-11b-benzyl-3-methyl-2,3,4,4a,5,6,7,11b-octahydro-1H-dibenzo[a,c]cycloheptene-3,9-diol [Example 7]

The next lines start with the compound.

Compound	IC50
Cc1ncccc1NC(=O)c1ccc2c(c1)CCC[C@H]1C[C@](O)(C(F)(F)F)CC[C@]21Cc1ccccc1 [Example 107, (7aS,9S,11aR)-11a-Benzyl-9-hydroxy-9-trifluoromethyl-6,7,7a,8,9,10,11,11a-octahydro-5H-dibenzo[a,c]cycloheptene-3-carboxylic acid (2-methyl-pyridin-3-yl)-amide]	100 to 1000 nM
Cc1ncccc1NC(=O)c1ccc2c(c1)CN(C)C[C@H]1CC(=O)CC[C@@]21Cc1ccccc1 [Example 108, (4aS,11bS)-11b-Benzyl-6-methyl-N-(2-methylpyridin-3-yl)-3-oxo-2,3,4,4a,5,6,7,11b-octahydro-1H-dibenzo[c,e]azepine-9-carboxamide]	1000 to 10000 nM
Cc1ncccc1NC(=O)c1ccc2c(c1)CN(C)C[C@H]1C[C@@H](O)CC[C@@]21Cc1ccccc1 [Example 109, (3S,4aS,11bS)-11b-benzyl-3-hydroxy-6-methyl-N-(2-methylpyridin-3-yl)-2,3,4,4a,5,6,7,11b-octahydro-1H-dibenzo[c,e]azepine-9-carboxamide]	> 10000 nM
Cc1ncccc1NC(=O)c1ccc2c(c1)COC(=O)[C@H]1CC(=O)CC[C@@]21Cc1ccccc1 [Example 110, (7aS,11aS)-11a-Benzyl-N-(2-methylpyridin-3-yl)-7,9-dioxo-5,7,7a,8,9,10,11,11a-octahydrodibenzo[c,e]oxepine-3-carboxamide]	> 10000 nM
CC[C@@]1(O)CC[C@@]2(Cc3ccccc3)c3ccc(C(=O)Nc4cccnc4C)cc3COC[C@H]2C1 [Example 111, (7aS,9R,11aS)-11a-Benzyl-9-ethyl-9-hydroxy-N-(2-methylpyridin-3-yl)-5,7,7a,8,9,10,11,11a-octahydrodibenzo[c,e]oxepine-3-carboxamide]	< 100 nM
CC[C@@]1(O)CC[C@@]2(Cc3ccccc3)c3ccc(C(=O)Nc4cccnc4C)cc3C(=O)OC[C@H]2C1 [Example 112, (7aS,9R,11aS)-11a-Benzyl-9-ethyl-9-hydroxy-N-(2-methylpyridin-3-yl)-5-oxo-5,7,7a,8,9,10,11,11a-octahydrodibenzo[c,e]oxepine-3-carboxamide]	100 to 1000 nM
CC[C@@]1(O)CC[C@@]2(Cc3ccccc3)c3ccc(C(=O)Nc4cccnc4C)cc3C(=O)N(C)C[C@@H]2C1 [Example 113, (3R,4aR,11bS)-11b-Benzyl-3-ethyl-3-hydroxy-6-methyl-N-(2-methylpyridin-3-yl)-7-oxo-2,3,4,4a,5,6,7,11b-octahydro-1H-dibenzo[c,e]azepine-9-carboxamide]	1000 to 10000 nM
CC[C@@]1(O)CC[C@@]2(Cc3ccccc3)c3ccc(C(=O)Nc4cccnc4C)cc3CC(=O)C[C@H]2C1 [Example 114, (7aR,9R,11aS)-11a-Benzyl-9-ethyl-9-hydroxy-6-oxo-6,7,7a,8,9,10,11,11a-octahydro-5H-dibenzo[a,c]cycloheptene-3-carboxylic acid (2-methyl-pyridin-3-yl)-amide]	< 100 nM
Cc1ncccc1NC(=O)c1ccc2c(c1)C(=O)OC[C@@H]1C[C@@](O)(C(F)(F)F)CC[C@@]21Cc1ccccc1 [Example 115, (7aR,9R,11aS)-11a-Benzyl-9-hydroxy-N-(2-methylpyridin-3-yl)-5-oxo-9-(trifluoromethyl)-5,7,7a,8,9,10,11,11a-octahydrodibenzo[c,e]oxepine-3-carboxamide]	100 to 1000 nM
Cc1ncccc1NC(=O)c1ccc2c(c1)COC[C@@H]1C[C@@](O)(C(F)(F)F)CC[C@@]21Cc1ccccc1 [Example 116, (7aR,9R,11aS)-11a-Benzyl-9-hydroxy-N-(2-methylpyridin-3-yl)-9-(trifluoromethyl)-5,7,7a,8,9,10,11,11a-octahydrodibenzo[c,e]oxepine-3-carboxamide]	100 to 1000 nM
Cc1ncccc1NC(=O)c1ccc2c(c1)CN(C)C[C@@H]1C[C@@](O)(C(F)(F)F)CC[C@@]21Cc1ccccc1 [Example 117, (3R,4aR,11bS)-11b-Benzyl-3-hydroxy-6-methyl-N-(2-methylpyridin-3-yl)-3-(trifluoromethyl)-2,3,4,4a,5,6,7,11b-octahydro-1H-dibenzo[c,e]azepine-9-carboxamide]	100 to 1000 nM
Cc1ncccc1NC(=O)c1ccc2c(c1)C(=O)CC[C@@H]1C[C@@](O)(C(F)(F)F)CC[C@@]21Cc1ccccc1 [Example 118, (7aR,9R,11aS)-11a-Benzyl-9-hydroxy-5-oxo-9-trifluoromethyl-6,7,7a,8,9,10,11,11a-octahydro-5H-dibenzo[a,c]cycloheptene-3-carboxylic acid (2-methyl-pyridin-3-yl)-amide]	< 100 nM
(3R,4aS,11bS)-11b-Benzyl-3-methyl-2,3,4,4a,5,6,7,11b-octahydro-1H-dibenzo[a,c]cycloheptene-3,9-diol; compound with (3S,4aR,11bR)-11b-benzyl-3-methyl-2,3,4,4a,5,6,7,11b-octahydro-1H-dibenzo[a,c]cycloheptene-3,9-diol [Example 6]	< 100 nM
